Test results taken from US5334761A, “Cationic lipids” (Life Technologies, Inc., priority 1992, dated 1994).
Structures can show the parent of a compound that is named as a salt.

Columns and labels:
BHK-21 cells [1] = test: CAT transient transfection; format: cell-based, baby hamster
Procedure: (§1) A one-to-one mixture (by weight) of the desired lipid and dioleylphosphatidyl ethanolamine was prepared in CHCl3. The CHCl3 was removed on the rotary evaporator to obtain a thin film of lipid mixture. The mixture was hydrated with enough water to obtain approximately 1.25 mg of lipid per ml of solution. The solution was passed through a microfluidizer twice and diluted to 1 mg/ml. The liposome formulation was then filtered through a 0.2 μ filter. Compound 8 was also formulated without DOPE either by sonication at 1 mg/ml in water or by dissolving a dried lipid film with ethanol and then adding water to give a final concentration of 2.5 mg/ml. Ethanol was 10% of that volume. In some instances, this was further diluted with water to 1 mg/ml, 4% ethanol.
(§2) Baby hamster kidney (BHK-21) , COS-7, HeLa-S3 cells, and normal human fibroblasts isolated from newborn foreskin dermis were grown in Dulbecco's-modified Eagle's medium (DMEM) containing 10% fetal bovine serum (FBS), 2 mM L-glutamine (gln), 0.1 mM MEM nonessential amino acids (NEAA), 100 U/ml penicillin, and 100 μg/ml streptomycin. […]
Cell lysates were assayed for CAT activity as described by Neumann et al. (1987) BioTechniques 5:444 using [^14 C]-butyryl coenzyme A (New England Nuclear, Boston, Mass.). […] CAT activity was determined by measuring radioactivity in a liquid scintillation counter. […]

BHK-21 cells [2] = test: % protein (toxicity estimate, Bradford) after transfection; format: cell-based, baby hamster
Procedure: as §1, §2
(§3) The "% protein" column indicates the relative amount of protein in the sample tested for CAT activity and therefore provides a way to estimate toxicity of the compounds being tested. […] Protein was measured using a commercially available Bradford protein assay (BioRad Laboratories, Richmond, Ca.). […]

NIH-3T3 cells = test: as above; format: cell-based, mouse
Procedure: as §1, §2, §3

[3] = system: normal human keratinocytes; test: as above; format: cell-based
Procedure: as §1
Baby hamster kidney (BHK-21) , COS-7, HeLa-S3 cells, and normal human fibroblasts isolated from newborn foreskin dermis were grown in Dulbecco's-modified Eagle's medium (DMEM) containing 10% fetal bovine serum (FBS), 2 mM L-glutamine (gln), 0.1 mM MEM nonessential amino acids (NEAA), 100 U/ml penicillin, and 100 μg/ml streptomycin. NIH-3T3 cells were grown in DMEM containing 10% calf serum (CS), 2 mMgln, 0.1 mM NEAA 100 U/ml penicillin, and 100 μg/ml streptomycin. PC12 cells were grown in DMEMcontaining 10% horse serum, 5% FBS, 2 mM gln, 0 1 mMNEAA, 100 U/ml penicillin and 100 μ/ml streptomycin. Jurkat cells (human lymphoid cell line) were grown in RPMI-1640 supplemented with 10% FBS, 2mML-glutamine, 100 U/ml penicillin, and 100 μg/ml streptomycin. Human keratinocytes were isolated from newborn foreskin epidermis and cultured in Keratinocyte Growth Medium (Clonetics, San Diego, Ca.). All cell lines were maintained in a humidified incubator with a 5% CO2 atmosphere at 37° C. […]
as §3

[4] = as above; format: cell-based; details: monkey, cos-7 cells; 12 μg lipid; 1 μg pSV2CAT; 6 h DMEM
Procedure: as §1, §2, §3

COS-7 cells = test: as above; format: cell-based; details: Cos-7
Procedure: as §1, §2, §3

Compound: CCCCCCCC/C=C\CCCCCCCCOCC(C[N+](C)(C)CCNC(=O)C(CCCNCCCN)NCCCN)OCCCCCCCC/C=C\CCCCCCCC (stereo not drawn) [Compound 8, 1-Propanaminium, N-[2-[[2,5-bis[(3-amino]-1-oxopentyl]amino]ethyl]-n,n-dimethyl-2,3,-bis(9-octadecenyloxy)-, tetra(trifluoroacetate) salt]
- DNA transfection (in words) (BHK-21 cells [1]): highly effective
- toxicity (in words) (BHK-21 cells [2]): minimal toxicity
- toxicity (in words) (NIH-3T3 cells): minimal toxicity
- toxicity (in words) [3]: minimal toxicity
- viability at 6 h [4]: 99.1%
- toxicity (in words) (COS-7 cells): minimal toxicity
